Measurements as given in patent US20120040956A1, “INHIBITORS OF HIF-1 PROTEIN ACCUMULATION” (INTERMED DISCOVERY GMBH, priority 2008, published 2012).

What was measured:
[1] = tested on: HIF-1; test: HIF-1-dependent luciferase reporter gene activity in 293T cells under hypoxia; type: cell-based, human
Description: A HIF-1-dependent luciferase reporter gene was transfected into 293T cells by transfection with Rotifect™ (Trademarked by Carl Roth GmbH; Karlsruhe, Germany) or alternatively into Jurkat T cells by electroporation. Both cell lines were transfected with a HIF-1-dependent reporter gene. The next day, cells were preincubated for 1 h with the indicated, submicromolar concentrations of the test compounds and then incubated for further 8 h under normoxic or hypoxic (1% O2) conditions. After that, cells were harvested followed by the analysis of luciferase activity in a luminometer.
A HIF-1-dependent luciferase reporter gene was transfected into 293T cells. The next morning, cells were pretreated for 1 h with the indicated concentrations of compounds, followed by induction of hypoxia (hypoxia chamber) for 8 h. Subsequently cells were harvested and lyzed. Luciferase activity in cell extracts was measured in a luminometer (Duo Lumat LB 9507, Berthold) by injecting 20 microliter of assay buffer to 20 microliter of extract. Light emission was measured for 10 s, relative light units are given.
After transfection of 293T cells with a HIF-1-dependent luciferase reporter gene, cells were further incubated under normoxic or hypoxic (8 h, 1% O2) conditions as shown in FIG. 4. Effectively blocking concentrations of the IMDs (250 nM each) were added either 1 hour prior to hypoxia or 2 and 4 hours after induction of hypoxia.

[2] = tested on: HIF-1α mRNA; test: Hif-1α mRNA expression by real-time PCR; type: cell-based; details: human cells, 250 nM for 3 h, normoxic or hypoxic (45 minutes, 1% O2)
Description: In order to investigate whether the compounds of the invention do exert their HIF-1-1 suppressive action via inhibition of HIF-1-1 transcription the compounds were tested for their effects on HIF-1α mRNA production. In all experiments, human cells were exposed to efficiently blocking concentrations (250 nM) of the test compounds for 3 h. Then cells were further cultivated under normoxic or hypoxic conditions (45 minutes, 1% O2) respectively. Afterwards cell samples were harvested and RNA was extracted. cDNA was synthesized using specific primers and the PE Applied Biosystems Reverse Transcription Reagents. Real-time PCR was performed by using the SYBR Green I detection chemistry (Applied Biosystems) and an ABI Prism 7300 system. The expression of Hif-1α was quantified and results were normalized to Hprt1 and β-Actin (“housekeeping-gene”) expression. The relative abundance of the different genes was calculated by the comparative CT method. HIF-1α transcription of normoxic control cells was arbitrarily set to 1. […] Therefore an effect of IMD-compounds on HIF-1-dependent gene expression seems not to be mediated on HIF-1α transcription (FIG. 5).

[3] = tested on: cell-free protein translation (BMV mRNA, ribosomes); test: Cell-free protein translation of Brome mosaic virus (BMV) mRNA with ribosomes; type: biochemical; details: relevant (nM) concentrations, SDS-PAGE
Description: The effect of IMD-019064 on cell-free protein translation in vitro was investigated (see also assay principle in FIG. 8). Brome mosaic virus (BMV) mRNA encoding for 4 different viral proteins was incubated with ribosomes in the presence and absence of IMD-019064 (FIG. 9a), IMD-026259, IMD-026260 (FIG. 9b), or cycloheximide (Chx, 10 μM) (positive control) and the formed proteins analyzed by SDS-PAGE.
Panels show representative SDS-PAGE protein gels. Vehicle-containing translation reactions (Veh) represent 100% translation efficacy, while Cycloheximide (Chx; 10 μg/ml) a known inhibitor of protein translation that was used as a positive control does show significant protein reduction.

[4] = tested on: PDK1 (pyruvate dehydrogenase kinase1); test: HIF-1 target gene PDK1 expression in 293T cells by real-time PCR; type: cell-based; details: Homo sapiens, HEK-293T, 1 h pretreatment, 8 h hypoxia, read-out: IC50, suppression of endogenous PDK1 gene expression
Description: Human 293T cells were cultivated either under normoxic conditions or under hypoxic conditions (1% oxygen) for 4 and 8 hs respectively. Cells were harvested, followed by the isolation of RNA and the generation of cDNAs from Oligo (dT)20 primers using a Reverse Transcriptase kit. Then gene expression was measured by real-time PCR for the following two selected HIF-1α target genes: LDH-A (lactate dehydrogenase isoform A), and PDK1 (pyruvate dehydrogenase kinase1). Real-time PCR was performed with cDNA using specific primers and the SYBR Green I detection chemistry system (Applied Biosystems), utilizing an ABI Prism 7300 system. Actin was also measured as an internal control. The relative abundance of the different genes was calculated by the comparative CT method. In order to facilitate comparison, gene expression under normoxic conditions was arbitrarily set to 1 for each of the three genes. Two independent experiments confirmed PDK1 as the gene which was induced most prominently compared to LDH.
To investigate the capability of the compounds to inhibit PDK1, 293T cells were pretreated for 1 h with 3 different concentrations of the respective inhibitors (IMD-019064; IMD-026259; and IMD-026260). Subsequently, cells were incubated under normoxic/hypoxic conditions for further 8 h and the expression of PDK1 was quantified by real-time PCR as described above.

[5] = tested on: HUVEC; test: Spheroid-based angiogenesis assay, VEGF-A induced HUVEC sprouting; type: cell-based, human
Description: As described in Example 4 HUVEC spheroids were generated, cultivated and embedded in a 3D collagen gel and stimulated with Vascular Endothelial Growth Factor alpha [VEGF-A; 25 ng/ml] instead of deferoxamine. Cell spheroids were treated for 24 h with different concentrations of IMD-026259; IMD-026260; Sutent® (Sunitinib) and Sorafenib (Nexavar®) (in Molar [M], as indicated in Table 4; see also FIG. 14A).
The cumulative sprout length of 10 randomly selected spheroids per data point was analyzed and the relative inhibition by the test compound determined. Fitting of IC50 curves and calculation of IC50 values was performed with GraphPad Prism® 5.01 (trademarked by GraphPad Software Inc.). […] Results from the examples described above are summarized in FIG. 14b IC50 values are given in nM for in vitro angiogenesis (HUVEC sprouting) studies after hypoxic or VEGF induction.

CNCCOc1ccc2c(c1)OC1(c3ccc(Cl)cc3)C(c3ccccc3)CC(O)C21O (stereo not shown) [IMD-026260, (1,3a,8b)-3a-(4-chlorophenyl)-6-(2-(methylamino)ethoxy)-3-phenyl-2,3,3a,8b-tetrahydro-1H-benzo[d]cyclopenta[b]furan-1,8b-diol]
time-dependency of inhibition of HIF-1-dependent luciferase expression ([1]; 250 nM, added 4 hours after induction of hypoxia (8 h, 1% O2)): able to inhibit HIF-1-dependent luciferase expression even when added 4 hours after hypoxic induction
IC50 ([1]; Homo sapiens, HEK-293T, 1 h pretreatment, hypoxia 8 h, read-out: IC50, HIF-1 luciferase inhibitory activity): 18 nM
effect on Hif-1α mRNA production [2]: did not show any effects
effect on in vitro protein translation [3]: No significant effect
IC50 [4]: 8 nM
IC50 ([5]; Homo sapiens, HUVEC, VEGF-A 25 ng/ml, 24 h, read-out: IC50, VEGF-A induced sprouting of HUVEC spheroids): 28 nM
inhibition of angiogenic sprouting in vitro (HUVEC sprouting) ([5]; after hypoxic or VEGF induction, summary statement): potent inhibitors of angiogenic sprouting in vitro
